Results reported in patent US20190142775A1, “TREATING ACTIVATED DERMAL CONDITIONS WITH AGENTS THAT TARGET ENERGY METABOLISM” (Sciaderm, Inc., priority 2016, published 2019).

What was measured:
[1] = at higher pH (e.g., physiologic pH); cited from earlier work
[2] = test system: psoriatic plaques; experiment: Open label case report: topical 3-BP formulation applied to psoriatic plaques of one subject; format: in vivo, human
Description: The present Example describes use of an exemplary topical formulation of 3-BP in the treatment of psoriasis. The goal of this study is to reduce the hyper-proliferation of skin cells and deactivate the inflammatory response associated with the condition. Therefore, treatment was planned in a sequential dose escalating fashion. Dose escalation is accomplished by a step wise increase in formulation strength and/or application volume and frequency. Daily or twice daily doses were administered, with an initial strength ranging from about 0.001% to about 0.05% and administered doses were increased incrementally to a final strength ranging from about 5% to about 25% of the total weight of the formulation. As a first objective, the maximum tolerated dose was established, which was indicated by the observation of local irritation in the area of application. In some cases, once local irritation was observed, dosing was then reduced by approximately factor of four and continued or readjusted as appropriate to assess efficacy.
An exemplary topical formulation of 3-BP was prepared as described below: […]
An exemplary 3-Bromo-Pyruvic Acid (“BPA”) formulation was compounded as a lotion of low viscosity, filled dropper bottles (e.g., a 3 mL dropper bottle).
Compounding: 3-Bromo-Pyruvic Acid, BPA, CAS#1113-59-3, was obtained from AK Scientific, Inc., Union City, Calif. and stored at frozen conditions. Given the known instability of BPA at higher pH (e.g., physiologic pH) the final formulation consisted of 75% acetic acid (5% w/w) and 25% compounding base with a pH of approximately 3.0. During formulation, all ingredients were chilled to +5° C., and kept on ice for the entire procedure.
Stock solution A was prepared by dissolving the appropriate amount of solid bromopyruvic acid, BPA, in 5% acetic acid at a concentration of 2% to 10% (w/w); depending on the desired final concentration, intermediate dilutions of for example 1:5, using 5% acetic acid, may have been prepared as well.
Stock solution B consisted of a commercially available compounding base, Vanicream™, NDC 45334-300-16, that was diluted 1:1 in 5% acetic acid. The final formulation was comprised of blending BPA solution (Stock A) with compounding base (Stock B) at a ratio of 1:1. The resulting formulation is of low viscosity and filled in 3 ml ophthalmic dropper bottles.
Final concentration of BPA was between 0.15 mM (0.0025% w/w) and 300 mM (5.0% w/w). To preserve stability of the active ingredient, the formulation was stored frozen at −18° C. until use. Once treatment application commenced, bottles were kept at refrigerated conditions (+5° C.) for up to 1 week and then replaced with freshly made product.
This research was conducted as an out-patient, open label, intra-individually controlled repeated measurement experiment involving up to 10 subjects. To minimize bias, subjects were treated at selected target plaques. Neighboring plaques serve as an intra-individual control.
An exemplary 3-BP formulation was self-administered as one or two drops per application, depending on size of the treatment area. Care was taken for drops to fall freely from the dropper tip to ensure a consistent dose volume of ≈25-50 μl/drop. Most treatment applications were done in the morning and photographs were taken mostly in the evening to allow possible moisturizing effects of the compounding base to wear off.
Within each treatment area, the severity is estimated by three clinical signs: erythema (redness), induration (thickness) and desquamation (scaling). Efficacy is assessed using the Investigators Global Assessment scale and the Psoriasis Area Severity Index (PASI), which are summarized in Tables 1 and 2 below. In addition, target lesions are photographed and adjudicated by a blinded independent investigator. These efficacy variables were assessed at every visit.
Safety is assessed by collection of research events and review of concomitant treatments. Clinical adverse event reporting is conducted at each visit. […]

[3] = Plaque #3, right forearm, one drop per day, 1.75 mM, one week
[4] = Plaque #4, left forearm, 0.15 mM, QD, 2.5 weeks
[5] = Plaque #5, left elbow, 1 drop per day, 0.15 mM, 10 days

O=C(O)C(=O)CBr [3-BP, 3-bromopyruvate]
Stability of BPA [1]: instability | Adverse effects at a strength of 0.5 mM ([2]; 0.5 mM, summary of case report): without any observable adverse effects | Efficacy at a strength of 0.5 mM ([2]; 0.5 mM, summary of case report): highly effective | Plaque status 20 weeks after last treatment application ([2]; Plaque 1, left forearm, 26 weeks after baseline (FIG. 1)): complete remission | Local adverse effects ([2]; Plaque 1, left forearm, BID, 0.1% to 5.0% (6-300 mM), after approximately one week of treatment): local irritation, oozing, and crusting | Treatment effect on psoriatic plaque ([2]; Plaque 1, left forearm, one drop twice per day, strength escalated 0.1% to 5.0% (6-300 mM) in first week, later reduced to QD and 0.1%, stopped after 6 weeks): completely resolved | Plaque status 20 weeks after last treatment application ([2]; Plaque #2, right forearm): complete remission | Duration of complete remission after last treatment application ([2]; Plaque #2, right forearm, as of the date of the last visit): approximately 8 months | Tolerability / local adverse effects ([2]; Plaque #2, right forearm, once daily 0.1% (6 mM) one week, then 0.03% (1.75 mM) two weeks): well tolerated and only some mild local irritation | Treatment effect on psoriatic plaque ([2]; Plaque #2, right forearm, once daily 0.1% (6 mM) one week, then 0.03% (1.75 mM) two weeks, Day 21): mostly resolved | Tolerability ([2]; Plaque #3, right forearm, 0.5 mM, once per day): well tolerated | Treatment effect on severity of psoriasis plaques ([2]; Plaque #3, right forearm, 1 mM QD 10 days, then 0.5 mM once per day): Significant improvement | Local adverse effects ([2]; Plaque #3, right forearm, 1 mM, QD, 10 days): minor local irritation | Plaque status after treatment was stopped ([2]; Plaque #3, right forearm, after 1.75 mM QD and 6 mM every other day): psoriatic skin afflictions remained | Local adverse effects [2, 3]: itching and pin-head sized crusting | Treatment effect on psoriatic plaque [2, 3]: improved | Local adverse effects ([2]; Plaque #3, right forearm, resumed at 6 mM every other day after one week pause): local irritation became more pronounced | Tolerability [2, 4]: well tolerated | Treatment effect on psoriatic plaque [2, 4]: only marginal efficacy | Time plaque remained resolved after the last application ([2]; Plaque #4, left forearm, 0.5 mM): more than 6 weeks | Local adverse effects ([2]; Plaque #4, left forearm, 0.5 mM, Day 18 to 43): did not induce any local irritancy or other unwanted effects | Treatment effect on psoriatic plaque ([2]; Plaque #4, left forearm, 0.5 mM, Day 18 to 43, continued treatment): completely resolved | Treatment effect on psoriatic plaque ([2]; Plaque #5, left elbow, 0.5 mM, 1 drop QD Days 10-19, 2 drops QD from Day 20, Day 47 (FIG. 4), versus untreated right elbow): completely clear of psoriasis | Tolerability [2, 5]: well tolerated | Treatment effect on psoriatic plaque [2, 5]: only marginal improvement | Response of all treated plaques ([2]; five different or recurring psoriasis plaques, over a period of three to six weeks): responded favorably or completely resolved | Concentration inducing local irritation / at which adverse events started to emerge ([2]; local irritation, including oozing and crusting, summary of case report): ≥ 1000 µM | Outcome of local adverse effects after cessation of treatment ([2]; within a few weeks after treatment was stopped): resolved without sequelae
